Experimental data reported in patent publication US12144795B2, “Cannabidiol compositions having modified cannabinoid profiles” (priority 2018, dated 2024).
≈ marks a conversion by molar mass, not a printed value.

Tests used:
Type in all cases: physicochemical
[1] = HPLC method quantifying low levels of D9-THC in stored cannabidiol samples
Method: An analytical method using HPLC was developed to determine low levels of delta-9-tetrahydrocannabinol in cannabidiol samples. A Waters XBridge C18 3.5 μm, 3.0×150 mm column was employed and operated at a temperature of 30° C., UV wavelength of 225 nm, and injection size of 20 μL. Mobile Phase A was 0.02% (v/v) acetic acid in H2O, while mobile phase B was 0.02% (v/v) acetic acid in acetonitrile (ACN).
An aliquot of 0.5 mL of a D9-THC reference standard (Cerilliant, 1.0 mg/mL MeOH solution) was diluted in a 500-mL volumetric flask using sample diluent (70/30 Acetonitrile/H2O, v/v). The D9-THC concentration was 0.001 mg/mL in the standard stock solution, which corresponded with 200 ppm of D9-THC as compared to the CBD sample solution (nominal CBD concentration was 5.0 mg/mL).
An Aliquot of 5 mL of THC Stock Standard Solution was diluted in a 100-mL volumetric flask using the sample diluent. The D9-THC concentration was 0.00005 mg/mL in the working standard solution, corresponding with 10 ppm of D9-THC as compared to the CBD sample solution.
About 50 mg of cannabidiol sample was weighed into a 10-mL volumetric flask. The volumetric flask was diluted to volume using sample diluent and mixed well.
A minimum of 6 working standard solutions were injected prior to the sample set. Furthermore, a maximum of 6 injections of CBD sample were injected between bracketing working standard solutions.
The amount of THC in each sample was calculated using the following
For reference, each chromatogram in FIG. 6A through FIG. 6F is shown against a 10 ppm THC working standard. For samples 1, 2, and 3, roughly 50.28 mg, 50.77 mg, and 55.60 mg material was used.

[2] = Particle size distribution (Mastersizer 2000 laser diffraction, Morphologi G3)
Description: A Mastersizer 2000 was used to analyze the particle size distribution in cannabidiol samples. This method involved laser diffraction to measure the particle size distribution by the volume standard. Roughly 1 g of each sample was weighed and transferred along the middle of the sample tray. The sample feed gates were 6 mm-8 mm. The instrument software parameters were set to a dispersive air pressure of 3 bar, vibration feed rate of 60%, refractive index of 1.5295, absorption index of 0.01, and size range from 0.020 μm to 2000.000 μm. FIG. 8A-FIG. 8R show the result analysis report for each sample measured as well as their respective particle size distribution graph. Malvern Pananalytical's Morphologi G3 Analyzer was used in another series of experiments to examine sample volume size distribution.

[3] = Quantitative thermodynamic solubility determination at ambient temperature, evaporated solids analyzed by XRPD; conditions: for solubility: thermodynamic from solid, ambient temperature
Method: A quantitative thermodynamic solubility determination was performed on crude cannabidiol obtained via Protocol 2 to aid in the selection of solvents for crystallization experiments. The clear solutions obtained from each solubility determination experiment were evaporated and the obtained solids were analyzed by XRPD.
When the material precipitated as a solid, it was classified as Form A. However, in 11 experiments, the material obtained after evaporation was oil-like in appearance and could not be analyzed by XRPD. When no XRPD record was generated, the field was defined as “Not Applicable” (N/A).

[4] = after stored for 23 days at 55-60° C.
[5] = after storage at −16° C. for two years

**Q.** Which “Result (D9-THC in ppm)” value [1, 4] does the source give for `C=C(C)[C@@H]1CCC(C)=C[C@H]1c1c(O)cc(CCCCC)cc1O` [Sample 1, Cannabidiol] here?
**A.** 1.9 ppm

**Q.** What about the “Malvern 2K (dry dispersion) D10” value [2] of the same compound?
**A.** D10: 7.8 um

**Q.** And the “Malvern 2K (dry dispersion) D50” value [2]?
**A.** D50: 21.8 um

**Q.** And the “Malvern 2K (dry dispersion) D90” value [2]?
**A.** D90: 152.9 um

**Q.** Which “Result (D9-THC in ppm)” value [1, 4] does the source give for `C=C(C)[C@@H]1CCC(C)=C[C@H]1c1c(O)cc(CCCCC)cc1O` [Sample 2, Cannabidiol] here?
**A.** 5.9 ppm

**Q.** What about the “Malvern 2K (dry dispersion) D10” value [2] of the same compound?
**A.** D10: 8.0 um

**Q.** And the “Malvern 2K (dry dispersion) D50” value [2]?
**A.** D50: 23.9 um

**Q.** And the “Malvern 2K (dry dispersion) D90” value [2]?
**A.** D90: 157.5 um

**Q.** For `C=C(C)[C@@H]1CCC(C)=C[C@H]1c1c(O)cc(CCCCC)cc1O` [Sample 3, Cannabidiol], which “Result (D9-THC in ppm)” value ([1]; after storage for one month at room temperature (25° C.)) is on record?
**A.** 5.1 ppm

**Q.** Which “Result (D9-THC in ppm)” value [1, 5] does the source give for `C=C(C)[C@@H]1CCC(C)=C[C@H]1c1c(O)cc(CCCCC)cc1O` [Sample 4, Cannabidiol] here?
**A.** 8.3 ppm

**Q.** Which “Result (D9-THC in ppm)” value [1, 5] does the source give for `C=C(C)[C@@H]1CCC(C)=C[C@H]1c1c(O)cc(CCCCC)cc1O` [Sample 5, Cannabidiol] here?
**A.** 21.7 ppm

**Q.** Which “Result (D9-THC in ppm)” value [1, 5] does the source give for `C=C(C)[C@@H]1CCC(C)=C[C@H]1c1c(O)cc(CCCCC)cc1O` [Sample 6, Cannabidiol] here?
**A.** 7.3 ppm

**Q.** With `C=C(C)[C@@H]1CCC(C)=C[C@H]1c1c(O)cc(CCCCC)cc1O` [crude cannabidiol, cannabidiol] as the compound, how does the solubility ([3]; organic solvent or mixture, 1,2-Dimethoxyethane) read?
**A.** > 100 mg/mL

**Q.** And the solubility ([3]; organic solvent or mixture, 1-Propanol)?
**A.** > 100 mg/mL

**Q.** What about the solubility ([3]; organic solvent or mixture, 1.4-Dioxane) of the same compound?
**A.** > 100 mg/mL

**Q.** And the solubility ([3]; organic solvent or mixture, 2-Butanone)?
**A.** > 100 mg/mL

**Q.** And the solubility ([3]; organic solvent or mixture, 2-propanol)?
**A.** > 100 mg/mL

**Q.** What about the solubility ([3]; organic solvent or mixture, Acetone) of the same compound?
**A.** > 100 mg/mL

**Q.** What about the solubility ([3]; organic solvent or mixture, Acetonitrile) of the same compound?
**A.** > 100 mg/mL

**Q.** And the solubility ([3]; organic solvent or mixture, Anisole)?
**A.** > 100 mg/mL

**Q.** And the solubility ([3]; organic solvent or mixture, Chloroform)?
**A.** > 100 mg/mL

**Q.** What about the solubility ([3]; organic solvent or mixture, Cumene) of the same compound?
**A.** > 100 mg/mL

**Q.** What about the solubility ([3]; organic solvent or mixture, Cyclohexane) of the same compound?
**A.** > 100 mg/mL

**Q.** What about the solubility ([3]; organic solvent or mixture, Dichloromethane) of the same compound?
**A.** > 100 mg/mL

**Q.** And the solubility ([3]; organic solvent or mixture, Diethyl ether)?
**A.** > 100 mg/mL

**Q.** And the solubility ([3]; organic solvent or mixture, Ethanol)?
**A.** > 100 mg/mL

**Q.** What about the solubility ([3]; organic solvent or mixture, Ethyl Acetate) of the same compound?
**A.** > 100 mg/mL

**Q.** And the solubility ([3]; organic solvent or mixture, Ethyl Formate)?
**A.** > 100 mg/mL

**Q.** What about the solubility ([3]; organic solvent or mixture, Heptane) of the same compound?
**A.** 64.6 mg/mL (≈ 205 mM)

**Q.** What about the solubility ([3]; organic solvent or mixture, Isobutanol) of the same compound?
**A.** > 100 mg/mL

**Q.** And the solubility ([3]; organic solvent or mixture, Isopropyl acetate)?
**A.** > 100 mg/mL

**Q.** What about the solubility ([3]; organic solvent or mixture, Methanol) of the same compound?
**A.** > 100 mg/mL

**Q.** What about the solubility ([3]; organic solvent or mixture, Tert-Butyl methyl ether) of the same compound?
**A.** > 100 mg/mL

**Q.** And the solubility ([3]; organic solvent or mixture, Tetrahydrofuran)?
**A.** > 100 mg/mL

**Q.** What about the solubility ([3]; organic solvent or mixture, Toluene) of the same compound?
**A.** > 100 mg/mL

**Q.** And the solubility ([3]; organic solvent or mixture, p-Xylene)?
**A.** > 100 mg/mL

**Q.** What about the XRPD ([3]; solid after evaporation of 1.4-Dioxane solution) of the same compound?
**A.** Form A

**Q.** What about the XRPD ([3]; solid after evaporation of 2-Butanone solution) of the same compound?
**A.** Form A

**Q.** And the XRPD ([3]; solid after evaporation of Chloroform solution)?
**A.** Form A

**Q.** And the XRPD ([3]; solid after evaporation of Cyclohexane solution)?
**A.** Form A

**Q.** What about the XRPD ([3]; solid after evaporation of Dichloromethane solution) of the same compound?
**A.** Form A

**Q.** And the XRPD ([3]; solid after evaporation of Diethyl ether solution)?
**A.** Form A

**Q.** What about the XRPD ([3]; solid after evaporation of Ethyl Acetate solution) of the same compound?
**A.** Form A

**Q.** And the XRPD ([3]; solid after evaporation of Ethyl Formate solution)?
**A.** Form A

**Q.** And the XRPD ([3]; solid after evaporation of Heptane solution)?
**A.** Form A

**Q.** And the XRPD ([3]; solid after evaporation of Isopropyl acetate solution)?
**A.** Form A

**Q.** And the XRPD ([3]; solid after evaporation of Tert-Butyl methyl ether solution)?
**A.** Form A

**Q.** What about the XRPD ([3]; solid after evaporation of Tetrahydrofuran solution) of the same compound?
**A.** Form A

**Q.** What about the XRPD ([3]; solid after evaporation of Toluene solution) of the same compound?
**A.** Form A

**Q.** What about the XRPD ([3]; solid after evaporation of Water solution) of the same compound?
**A.** Form A

**Q.** What about the solubility ([3]; Water) of the same compound?
**A.** < 0.13 mg/mL
